Measurements reported in patent US10745396B2, “Pesticidally active polycyclic derivatives with sulfur containing substituents” (Syngenta Participations AG, priority 2015, dated 2020).

What was measured:
Format in all cases: in vivo
[1] = test system: Euschistus heros (Neotropical Brown Stink Bug); assay: Euschistus heros, soybean leaves on agar, N2 nymphs; conditions: 120 h, application rate of 200 ppm, 5 days after infestation, read-out: effect in at least one of the two categories (mortality or growth inhibition)
Experimental: Example B3: Euschistus heros (Neotropical Brown Stink Bug)
Soybean leaves on agar in 24-well microtiter plates were sprayed with aqueous test solutions prepared from 10′000 ppm DMSO stock solutions. After drying the leaves were infested with N2 nymphs. The samples were assessed for mortality and growth inhibition in comparison to untreated samples 5 days after infestation.

[2] = test system: Diabrotica balteata (Corn Root Worm); assay: Diabrotica balteata, maize sprouts on agar, L2 larvae; conditions: 96 h, application rate of 200 ppm, 4 days after infestation, read-out: effect in at least one of the two categories (mortality or growth inhibition)
Experimental: Example B2: Diabrotica balteata (Corn Root Worm)
Maize sprouts placed onto an agar layer in 24-well microtiter plates were treated with aqueous test solutions prepared from 10′000 ppm DMSO stock solutions by spraying. After drying, the plates were infested with L2 larvae (6 to 10 per well). The samples were assessed for mortality and growth inhibition in comparison to untreated samples 4 days after infestation.

[3] = test system: Plutella xylostella (Diamond Back Moth); assay: Plutella xylostella, artificial diet, L2 larvae; conditions: 120 h, application rate of 200 ppm, 5 days after infestation, read-out: effect in at least one of the two categories (mortality or growth inhibition)
Experimental: Example B7: Plutella xylostella (Diamond Back Moth)
24-well microtiter plates with artificial diet were treated with aqueous test solutions prepared from 10′000 ppm DMSO stock solutions by pipetting. After drying, the plates were infested with L2 larvae (10 to 15 per well). The samples were assessed for mortality and growth inhibition in comparison to untreated samples 5 days after infestation.

[4] = test system: Spodoptera littoralis (Egyptian Cotton Leaf Worm); assay: Spodoptera littoralis, cotton leaf discs, L1 larvae; conditions: foliar, 72 h, application rate of 200 ppm, 3 days after infestation
Experimental: Example B8: Spodoptera littoralis (Egyptian Cotton Leaf Worm)
Cotton leaf discs were placed onto agar in 24-well microtiter plates and sprayed with aqueous test solutions prepared from 10′000 ppm DMSO stock solutions. After drying the leaf discs were infested with five L1 larvae. The samples were assessed for mortality, anti-feeding effect, and growth inhibition in comparison to untreated samples 3 days after infestation. Control of Spodoptera littoralis by a test sample is given when at least one of the categories mortality, anti-feedant effect, and growth inhibition is higher than the untreated sample.

[5] = test system: Bemisia tabaci (Cotton White Fly); assay: Bemisia tabaci feeding/contact activity, cotton leaf discs; conditions: foliar, 144 h, application rate of 200 ppm, 6 days after incubation, adult white flies
Experimental: Example B1: Bemisia tabaci (Cotton White Fly): Feeding/Contact Activity
Cotton leaf discs were placed on agar in 24-well microtiter plates and sprayed with aqueous test solutions prepared from 10′000 ppm DMSO stock solutions. After drying the leaf discs were infested with adult white flies. The samples were checked for mortality 6 days after incubation.

[6] = test system: Spodoptera littoralis (Egyptian Cotton Leaf Worm); assay: Spodoptera littoralis, uptake by lettuce roots from agar, eggs; conditions: 144 h, test rate of 12.5 ppm, 6 days after infestation, read-out: effect in at least one of the three categories (mortality, anti-feeding, or growth inhibition)
Description: Example B9: Spodoptera littoralis (Egyptian Cotton Leaf Worm)
Test compounds were applied by pipette from 10′000 ppm DMSO stock solutions into 24-well plates and mixed with agar. Lettuce seeds were placed onto the agar and the multi well plate was closed by another plate which contained also agar. After 7 days the compound was absorbed by the roots and the lettuce grew into the lid plate. The lettuce leaves were then cut off into the lid plate. Spodoptera eggs were pipetted through a plastic stencil onto a humid gel blotting paper and the lid plate was closed with it. The samples were assessed for mortality, anti-feedant effect and growth inhibition in comparison to untreated samples 6 days after infestation.

[7] = test system: Myzus persicae (Green Peach Aphid); assay: Myzus persicae feeding/contact activity, sunflower leaf discs; conditions: foliar, 144 h, application rate of 200 ppm, 6 days after infestation
Experimental: Example B5: Myzus persicae (Green Peach Aphid): Feeding/Contact Activity
(§1) Sunflower leaf discs were placed onto agar in a 24-well microtiter plate and sprayed with aqueous test solutions prepared from 10′000 ppm DMSO stock solutions. After drying, the leaf discs were infested with an aphid population of mixed ages. The samples were assessed for mortality 6 days after infestation.

[8] = test system: Myzus persicae (Green Peach Aphid); assay: Myzus persicae systemic activity, pea seedling roots in test solution; conditions: 144 h, test rate of 24 ppm, 6 days after placing seedlings into test solutions
Experimental: Example B6: Myzus persicae (Green Peach Aphid): Systemic Activity
Roots of pea seedlings infested with an aphid population of mixed ages were placed directly into aqueous test solutions prepared from 10′000 DMSO stock solutions. The samples were assessed for mortality 6 days after placing seedlings into test solutions.

[9] = test system: Thrips tabaci (Onion Thrips); assay: Thrips tabaci feeding/contact activity, sunflower leaf discs; conditions: foliar, 144 h, application rate of 200 ppm, 6 days after infestation
Experimental: Example B11: Thrips tabaci (Onion Thrips) Feeding/Contact Activity
as §1, with “on” for “onto”, “in” for “in a”, “plates” for “plate”, “drying” for “drying,”, “a thrips” for “an aphid”

[10] = test system: Tetranychus urticae (Two-Spotted Spider Mite); assay: Tetranychus urticae feeding/contact activity, bean leaf discs; conditions: foliar, 192 h
Experimental: Example B10: Tetranychus urticae (Two-Spotted Spider Mite): Feeding/Contact Activity
Bean leaf discs on agar in 24-well microtiter plates were sprayed with aqueous test solutions prepared from 10′000 ppm DMSO stock solutions. After drying the leaf discs were infested with a mite population of mixed ages. The samples were assessed for mortality on mixed population (mobile stages) 8 days after infestation.

[11] = test system: Frankliniella occidentalis (Western Flower Thrips); assay: Frankliniella occidentalis feeding/contact activity, sunflower leaf discs; conditions: foliar, 168 h, application rate of 200 ppm, 7 days after infestation, population of mixed ages
Experimental: Example B4: Frankliniella occidentalis (Western Flower Thrips): Feeding/Contact Activity
Sunflower leaf discs were placed on agar in 24-well microtiter plates and sprayed with aqueous test solutions prepared from […] stock solutions. After drying the leaf discs were infested with a Frankliniella population of mixed ages. The samples were assessed for mortality 7 days after infestation.

CCn1c(C(F)(F)F)cc2nc(-c3nc(-n4ccc(C(F)(F)F)n4)ccc3S(=O)(=O)CC)n(C)c2c1=O [Compound P3, 5-ethyl-2-[3-ethylsulfonyl-6-[3-(trifluoromethyl)pyrazol-1-yl]-2-pyridyl]-3-methyl-6-(trifluoromethyl)imidazo[4,5-c]pyridin-4-one]
≥ 80%: percent effect (mortality or growth inhibition) at 200 ppm [1] | percent effect (mortality or growth inhibition) at 200 ppm [2] | percent effect (mortality or growth inhibition) at 200 ppm [3] | percent control (mortality, anti-feedant effect or growth inhibition) at 200 ppm [4] | mortality at 200 ppm [5]

CCn1c(C(F)(F)F)cc2nc(-c3nc(-c4cncnc4)ccc3S(=O)(=O)CC)n(C)c2c1=O [Compound P21]
≥ 80%: percent effect (mortality or growth inhibition) at 200 ppm [1] | percent effect (mortality, anti-feeding or growth inhibition) at 12.5 ppm [6] | mortality at 200 ppm [7] | percent effect (mortality or growth inhibition) at 200 ppm [2] | percent effect (mortality or growth inhibition) at 200 ppm [3] | percent control (mortality, anti-feedant effect or growth inhibition) at 200 ppm [4] | mortality at 200 ppm [5]

CCn1c(C(F)(F)F)cc2nc(-c3nc(-n4cncn4)ccc3S(=O)(=O)CC)n(C)c2c1=O [Compound P5]
≥ 80%: percent effect (mortality or growth inhibition) at 200 ppm [1] | mortality at 24 ppm [8] | percent effect (mortality, anti-feeding or growth inhibition) at 12.5 ppm [6] | mortality at 200 ppm [7] | percent effect (mortality or growth inhibition) at 200 ppm [2] | percent effect (mortality or growth inhibition) at 200 ppm [3] | mortality at 200 ppm [9] | percent control (mortality, anti-feedant effect or growth inhibition) at 200 ppm [4] | mortality at 200 ppm [5]

CCS(=O)(=O)c1ccc(-n2cncn2)nc1-c1nc2cc(C(F)(F)F)n(C3CC3)c(=O)c2n1C [Compound P4, 5-cyclopropyl-2-[3-ethylsulfonyl-6-(1,2,4-triazol-1-yl)-2-pyridyl]-3-methyl-6-(trifluoromethyl)imidazo[4,5-c]pyridin-4-one]
≥ 80%: percent effect (mortality or growth inhibition) at 200 ppm [1] | mortality at 24 ppm [8] | percent effect (mortality, anti-feeding or growth inhibition) at 12.5 ppm [6] | mortality at 200 ppm [7] | percent effect (mortality or growth inhibition) at 200 ppm [2] | percent effect (mortality or growth inhibition) at 200 ppm [3] | mortality at 200 ppm [9] | mortality at 200 ppm [10] | percent control (mortality, anti-feedant effect or growth inhibition) at 200 ppm [4] | mortality at 200 ppm [5]

CCn1c(C(F)(F)F)cc2nc(-c3nc(-c4cnc(OC)nc4)ccc3S(=O)(=O)CC)n(C)c2c1=O [Compound P20]
≥ 80%: percent effect (mortality or growth inhibition) at 200 ppm [1] | percent effect (mortality, anti-feeding or growth inhibition) at 12.5 ppm [6] | mortality at 200 ppm [7] | mortality at 200 ppm [11] | percent effect (mortality or growth inhibition) at 200 ppm [2] | percent effect (mortality or growth inhibition) at 200 ppm [3] | percent control (mortality, anti-feedant effect or growth inhibition) at 200 ppm [4]

CCn1c(C(F)(F)F)cc2nc(-c3nc(C4CC4)ccc3S(=O)(=O)CC)n(C)c2c1=O [Compound P11]
≥ 80%: mortality at 200 ppm [5]

CCn1c(C(F)(F)F)cc2nc(-c3nc(-c4cc(F)ccc4F)ccc3S(=O)(=O)CC)n(C)c2c1=O [Compound P37]
≥ 80%: percent effect (mortality or growth inhibition) at 200 ppm [1] | percent effect (mortality, anti-feeding or growth inhibition) at 12.5 ppm [6] | percent effect (mortality or growth inhibition) at 200 ppm [2] | percent effect (mortality or growth inhibition) at 200 ppm [3] | percent control (mortality, anti-feedant effect or growth inhibition) at 200 ppm [4] | mortality at 200 ppm [5]

CCn1c(C(F)(F)F)cc2nc(-c3nc(-c4ccncc4)ccc3S(=O)(=O)CC)n(C)c2c1=O [Compound P13]
≥ 80%: mortality at 200 ppm [11] | percent effect (mortality or growth inhibition) at 200 ppm [2] | percent effect (mortality or growth inhibition) at 200 ppm [3] | percent control (mortality, anti-feedant effect or growth inhibition) at 200 ppm [4]

CCn1c(C(F)(F)F)cc2nc(-c3nc(-c4cccc(SC)c4)ccc3S(=O)(=O)CC)n(C)c2c1=O [Compound P29]
≥ 80%: percent effect (mortality or growth inhibition) at 200 ppm [1] | mortality at 200 ppm [7] | percent effect (mortality or growth inhibition) at 200 ppm [2] | percent effect (mortality or growth inhibition) at 200 ppm [3] | percent control (mortality, anti-feedant effect or growth inhibition) at 200 ppm [4] | mortality at 200 ppm [5]

CCn1c(C(F)(F)F)cc2nc(-c3nc(-c4cnco4)ccc3S(=O)(=O)CC)n(C)c2c1=O [Compound P38]
≥ 80%: mortality at 24 ppm [8] | mortality at 200 ppm [7] | percent effect (mortality or growth inhibition) at 200 ppm [2] | percent effect (mortality or growth inhibition) at 200 ppm [3] | percent control (mortality, anti-feedant effect or growth inhibition) at 200 ppm [4]

CCn1c(C(F)(F)F)cc2nc(-c3nc(-c4cccc(F)c4)ccc3S(=O)(=O)CC)n(C)c2c1=O [Compound P14]
≥ 80%: percent effect (mortality or growth inhibition) at 200 ppm [1] | percent effect (mortality, anti-feeding or growth inhibition) at 12.5 ppm [6] | mortality at 200 ppm [7] | percent effect (mortality or growth inhibition) at 200 ppm [2] | percent effect (mortality or growth inhibition) at 200 ppm [3] | percent control (mortality, anti-feedant effect or growth inhibition) at 200 ppm [4] | mortality at 200 ppm [5]

CCn1c(C(F)(F)F)cc2nc(-c3nc(-c4cncn4C)ccc3S(=O)(=O)CC)n(C)c2c1=O [Compound P28]
≥ 80%: percent effect (mortality or growth inhibition) at 200 ppm [2] | percent effect (mortality or growth inhibition) at 200 ppm [3] | percent control (mortality, anti-feedant effect or growth inhibition) at 200 ppm [4] | mortality at 200 ppm [5]

CCn1c(C(F)(F)F)cc2nc(-c3nc(-c4ccc(C(F)(F)F)nc4)ccc3S(=O)(=O)CC)n(C)c2c1=O [Compound P16]
≥ 80%: percent effect (mortality or growth inhibition) at 200 ppm [1] | mortality at 200 ppm [7] | mortality at 200 ppm [11] | percent effect (mortality or growth inhibition) at 200 ppm [2] | percent effect (mortality or growth inhibition) at 200 ppm [3] | percent control (mortality, anti-feedant effect or growth inhibition) at 200 ppm [4] | mortality at 200 ppm [5]
